Source: ChEMBL document CHEMBL4483862, “Open-source discovery of chemical leads for next-generation chemoprotective antimalarials” (2018)

Test system: Plasmodium berghei
Assay: Luciferase/luciferin-expressing antifolate-resistant parasites were used to infect a culture of HepG2 cells that were pre-incubated with compounds. Infected hepatocytes emit light due to the luciferase reaction. Assay results are presented as the percent inhibition of light emission compared to control. […]
Type: functional
Conditions: sporozoite; for IC90: read-out: LUCIFERASE INFECTION ASSAY - IC90

Compound | IC90 [µM] | other results
CC(C)c1ccccc1-n1c(SCC(=O)N2CCc3ccccc3C2)nc2ccccc2c1=O | > 10 | IC50 (FFLUC_HILL_SLOPE 14.4, FFLUC_R_SQUARED 0.575, read-out: LUCIFERASE INFECTION ASSAY - IC50): > 10 µM
COc1c(C)cc(C(O)c2nc(-c3cccc4ccccc34)c[nH]2)cc1C (configuration not stated) | > 9.21 | IC50 (FFLUC_HILL_SLOPE 13.5, FFLUC_R_SQUARED 0.422, HEPG2TOX_HILL_SLOPE 8.48, HEPG2TOX_R_SQUARED 0.286, read-out: LUCIFERASE INFECTION ASSAY - IC50): > 9.21 µM
COc1ccc(Sc2ccc([N+](=O)[O-])c3nonc23)cc1 | 10.7 | IC50 (FFLUC_HILL_SLOPE 14.3, FFLUC_R_SQUARED 0.436, HEPG2TOX_HILL_SLOPE 9.62, HEPG2TOX_R_SQUARED 0.82, PBLUC_HILL_SLOPE 22.9, PBLUC_R_SQUARED 0.553, read-out: LUCIFERASE INFECTION ASSAY - IC50): 9.76 µM
COc1ccc(C(=O)/C(=C/c2ccc(C)cc2C)c2nc3ccccc3[nH]2)cc1 | 4.07 | IC50 (FFLUC_HILL_SLOPE 13.7, FFLUC_R_SQUARED 0.282, HEPG2TOX_HILL_SLOPE 10.4, HEPG2TOX_R_SQUARED 0.664, PBLUC_HILL_SLOPE 15.9, PBLUC_R_SQUARED 0.277, read-out: LUCIFERASE INFECTION ASSAY - IC50): 3.54 µM
CC(C)CNc1nn2c(-c3cccc(C(=O)N(C)C)c3)cnc2s1 | > 9.61 | IC50 (FFLUC_HILL_SLOPE 13.4, FFLUC_R_SQUARED 0.472, read-out: LUCIFERASE INFECTION ASSAY - IC50): > 9.61 µM
CCN(CC)S(=O)(=O)c1ccc(SC(C)C(=O)Nc2ccc(OC(F)(F)F)cc2)nc1 (configuration not stated) | > 10 | IC50 (FFLUC_HILL_SLOPE 13.8, FFLUC_R_SQUARED 0.75, read-out: LUCIFERASE INFECTION ASSAY - IC50): > 10 µM
O=C(Nc1ccc(OC(F)(F)F)cc1)Nc1ccc2nc(-c3ccsc3)nn2c1 | 9.37 | IC50 (FFLUC_HILL_SLOPE 13.4, FFLUC_R_SQUARED 0.266, PBLUC_HILL_SLOPE 2.61, PBLUC_R_SQUARED 0.893, read-out: LUCIFERASE INFECTION ASSAY - IC50): 4.04 µM
Cc1cc(Cl)c(C)c(S(=O)(=O)Nc2ccccc2N2CCN(C)CC2)c1Cl | > 10 | IC50 (FFLUC_HILL_SLOPE 13.7, FFLUC_R_SQUARED 0.171, read-out: LUCIFERASE INFECTION ASSAY - IC50): > 10 µM
CCn1c2ccccc2c2cc(NC(=O)CN3C(=O)NC4(CCCc5ccccc54)C3=O)ccc21 (configuration not stated) | 9.72 | IC50 (FFLUC_HILL_SLOPE 13.4, FFLUC_R_SQUARED 0.411, HEPG2TOX_HILL_SLOPE 9.13, HEPG2TOX_R_SQUARED 0.498, PBLUC_HILL_SLOPE 3.53, PBLUC_R_SQUARED 0.448, read-out: LUCIFERASE INFECTION ASSAY - IC50): 5.21 µM
CC(C)(C)c1cc(C(=O)Nc2ccc(Br)c(Cl)c2)n(Cc2ccccc2)n1 | > 7.39 | IC50 (FFLUC_HILL_SLOPE 13.4, FFLUC_R_SQUARED 0.471, HEPG2TOX_HILL_SLOPE 9.89, HEPG2TOX_R_SQUARED 0.67, PBLUC_HILL_SLOPE 12.6, PBLUC_R_SQUARED 0.293, read-out: LUCIFERASE INFECTION ASSAY - IC50): > 7.39 µM
COc1cccc(-c2nc3ccc(NC(=O)Nc4ccc(Cl)c(C(F)(F)F)c4)cn3n2)c1 | 9.24 | IC50 (FFLUC_HILL_SLOPE 14.4, FFLUC_R_SQUARED 0.104, PBLUC_HILL_SLOPE 6.95, PBLUC_R_SQUARED 0.291, read-out: LUCIFERASE INFECTION ASSAY - IC50): 6.74 µM
Cn1c(-c2cccc(C(F)(F)F)c2)cc2c(Nc3cccnc3)nccc21 | > 10 | IC50 (FFLUC_HILL_SLOPE 13.4, FFLUC_R_SQUARED 0.159, PBLUC_HILL_SLOPE 11.7, PBLUC_R_SQUARED 0.342, read-out: LUCIFERASE INFECTION ASSAY - IC50): 9.06 µM
CCOC(=O)c1c(C)[nH]c(C(=O)CSc2nccn2C)c1C | 0.204 | IC50 (FFLUC_HILL_SLOPE 13.6, FFLUC_R_SQUARED 0.648, PBLUC_HILL_SLOPE 159, PBLUC_R_SQUARED 0.464, read-out: LUCIFERASE INFECTION ASSAY - IC50): 0.201 µM
O=C(Cn1ncc(Cl)c(Cl)c1=O)Nc1cc(Cl)ccc1[N+](=O)[O-] | 3.5 | IC50 (FFLUC_HILL_SLOPE 13.5, FFLUC_R_SQUARED 0.43, HEPG2TOX_HILL_SLOPE 9.94, HEPG2TOX_R_SQUARED 0.973, PBLUC_HILL_SLOPE 20.4, PBLUC_R_SQUARED 0.69, read-out: LUCIFERASE INFECTION ASSAY - IC50): 3.14 µM
CCCN1C(=O)c2[nH]nc(-c3ccccc3O)c2C1c1ccc(Cl)cc1 (configuration not stated) | > 8.97 | IC50 (FFLUC_HILL_SLOPE 13.6, FFLUC_R_SQUARED 0.713, HEPG2TOX_HILL_SLOPE 5.14, HEPG2TOX_R_SQUARED 0.579, read-out: LUCIFERASE INFECTION ASSAY - IC50): > 8.97 µM
CCC(C)NC(=O)c1c(NC(=O)c2ccc(Cl)cc2Cl)nc2ccc(C)cn12 (configuration not stated) | 0.967 | IC50 (FFLUC_HILL_SLOPE 13.5, FFLUC_R_SQUARED 0.613, HEPG2TOX_HILL_SLOPE 1.25, HEPG2TOX_R_SQUARED 0.963, PBLUC_HILL_SLOPE 11.1, PBLUC_R_SQUARED 0.736, read-out: LUCIFERASE INFECTION ASSAY - IC50): 0.793 µM

Compound | IC90 [µM] | other results
CCOC(=O)c1sc(SCc2ccc(Cl)cc2)c(S(=O)(=O)C(C)C)c1-n1cccc1 | > 6.82 | IC50 (FFLUC_HILL_SLOPE 13.5, FFLUC_R_SQUARED 0.375, read-out: LUCIFERASE INFECTION ASSAY - IC50): > 6.82 µM
O=C1C(=O)N(Cc2cc3c(cc2Cl)OCO3)c2ccc(Br)cc21 | > 8.36 | IC50 (FFLUC_HILL_SLOPE 13.4, FFLUC_R_SQUARED 0.714, HEPG2TOX_HILL_SLOPE 8.11, HEPG2TOX_R_SQUARED 0.359, PBLUC_HILL_SLOPE 6.2, PBLUC_R_SQUARED 0.151, read-out: LUCIFERASE INFECTION ASSAY - IC50): 7.48 µM
COc1cc(C(=O)N(C)C(c2ccccc2)c2ccccc2)ccc1OCC(C)C | > 10 | IC50 (FFLUC_HILL_SLOPE 13.6, FFLUC_R_SQUARED 0.558, HEPG2TOX_HILL_SLOPE 7.8, HEPG2TOX_R_SQUARED 0.217, read-out: LUCIFERASE INFECTION ASSAY - IC50): > 10 µM
COc1ccc(CC(=O)N2CCC3(CC2)OCc2ccccc2O3)cc1 | > 9.34 | IC50 (FFLUC_HILL_SLOPE 13.5, FFLUC_R_SQUARED 0.0841, HEPG2TOX_HILL_SLOPE 0.312, HEPG2TOX_R_SQUARED 0.567, read-out: LUCIFERASE INFECTION ASSAY - IC50): > 9.34 µM
O=S(=O)(c1ccc2oc(Nc3ccc(Nc4ccccc4)cc3)nc2c1)N1CCOCC1 | > 10 | IC50 (FFLUC_HILL_SLOPE 13.7, FFLUC_R_SQUARED 0.693, PBLUC_HILL_SLOPE 9.99, PBLUC_R_SQUARED 0.314, read-out: LUCIFERASE INFECTION ASSAY - IC50): 9.23 µM
Cc1ccc(CN2C(=O)C(O)(c3c[nH]c4ccccc34)c3ccccc32)c(C)c1 (configuration not stated) | 6.05 | IC50 (FFLUC_HILL_SLOPE 13.6, FFLUC_R_SQUARED 0.607, PBLUC_HILL_SLOPE 3.72, PBLUC_R_SQUARED 0.631, read-out: LUCIFERASE INFECTION ASSAY - IC50): 3.35 µM
O=C(NC(=S)NNc1ncc(C(F)(F)F)cc1Cl)c1cccs1 | 1.1 | IC50 (FFLUC_HILL_SLOPE 14.4, FFLUC_R_SQUARED 0.344, HEPG2TOX_HILL_SLOPE 0.95, HEPG2TOX_R_SQUARED 0.974, PBLUC_HILL_SLOPE 2.04, PBLUC_R_SQUARED 0.707, read-out: LUCIFERASE INFECTION ASSAY - IC50): 0.374 µM
Cc1ccc(-c2csc3[nH]c(CNC(C)c4ccc5c(c4)CCCC5)nc(=O)c23)s1 (configuration not stated) | > 10 | IC50 (FFLUC_HILL_SLOPE 13.5, FFLUC_R_SQUARED 0.414, HEPG2TOX_HILL_SLOPE 0.395, HEPG2TOX_R_SQUARED 0.365, read-out: LUCIFERASE INFECTION ASSAY - IC50): > 10 µM
CC(=O)c1ccc(NC(=O)Cn2nc(-c3ccco3)ccc2=O)cc1 | > 9.78 | IC50 (FFLUC_HILL_SLOPE 14.3, FFLUC_R_SQUARED 0.29, read-out: LUCIFERASE INFECTION ASSAY - IC50): > 9.78 µM
CCOC(=O)Nc1ccc2c(Cn3cnc4sc5c(c4c3=O)CCC5)cc(=O)oc2c1 | > 10 | IC50 (FFLUC_HILL_SLOPE 14, FFLUC_R_SQUARED 0.282, read-out: LUCIFERASE INFECTION ASSAY - IC50): > 10 µM
CC(C)(C)c1cc(NC(=O)CSc2ccc(Cl)cc2)c(C(N)=O)s1 | > 8.62 | IC50 (FFLUC_HILL_SLOPE 13.8, FFLUC_R_SQUARED 0.177, HEPG2TOX_HILL_SLOPE 8.22, HEPG2TOX_R_SQUARED 0.725, read-out: LUCIFERASE INFECTION ASSAY - IC50): > 8.62 µM
Cc1c(C(=O)C(F)(F)F)c(-c2nn(-c3ccccc3)c(NC(=O)C(F)(F)F)c2C(=O)C(F)(F)F)c(C)n1-c1ccc(F)cc1 | > 10 | IC50 (FFLUC_HILL_SLOPE 13.3, FFLUC_R_SQUARED 0.772, PBLUC_HILL_SLOPE 3.36, PBLUC_R_SQUARED 0.0987, read-out: LUCIFERASE INFECTION ASSAY - IC50): 8.23 µM
CC(C)c1nc(N2CCN(CC(=O)N3CCCC3)CC2)c(C#N)c2c1CCC2 | 2.94 | IC50 (FFLUC_HILL_SLOPE 13.3, FFLUC_R_SQUARED 0.232, PBLUC_HILL_SLOPE 4.16, PBLUC_R_SQUARED 0.67, read-out: LUCIFERASE INFECTION ASSAY - IC50): 1.73 µM
Clc1ccc2nc(CSc3nnc4c(n3)[nH]c3ccccc34)cn2c1 | 9.67 | IC50 (FFLUC_HILL_SLOPE 14.4, FFLUC_R_SQUARED 0.465, PBLUC_HILL_SLOPE 2.72, PBLUC_R_SQUARED 0.431, read-out: LUCIFERASE INFECTION ASSAY - IC50): 4.31 µM
O=c1c2c3c(sc2nc(SCc2nc4ccc(Cl)cc4n2CCO)n1CC1CCCO1)CCC3 (configuration not stated) | > 10 | IC50 (FFLUC_HILL_SLOPE 13.3, FFLUC_R_SQUARED 0.41, read-out: LUCIFERASE INFECTION ASSAY - IC50): > 10 µM
